# Measurements reported in paper PMC5298231, “The Malaria Parasite's Lactate Transporter PfFNT Is the Target of Antiplasmodial Compounds Identified in Whole Cell Phenotypic Screens” (PLoS Pathogens, 2017).
# “Also recorded” adds a separate entry of the source.
# Legend:
# Dd2 parent parasites = experiment: Parasite proliferation assay, Dd2 parent; format: cell-based, Plasmodium falciparum; details: Plasmodium falciparum, DD2, read-out: IC50 value, growth inhibition
# Procedure: Parasite proliferation was measured in 96-well plates using a fluorescent DNA-intercalating dye [45]. The assays were initiated with erythrocytes infected with predominantly ring-stage parasites, and the starting parasitaemia was 0.5–1% and the haematocrit was 1%.
# [1] = tested on: MMV007839-selected culture A (PfFNT Gly107Ser); experiment: Parasite proliferation assay, MMV007839-selected culture A; format: cell-based, Plasmodium falciparum
# Procedure: (§1) Parasite proliferation was measured in 96-well plates using a fluorescent DNA-intercalating dye. The assays were initiated with erythrocytes infected with predominantly ring-stage parasites, and the starting parasitaemia was 0.5–1% and the haematocrit was 1%.
# (§2) For MMV007839-selected culture A, the drug concentration was increased by 5 nM increments on Day 18, Day 21, and every two days thereafter. […] The cultures were provided with fresh medium and blood and diluted to reduce the parasitaemia as needed.
# [2] = tested on: MMV007839-selected culture B (PfFNT Gly107Ser); experiment: Parasite proliferation assay, MMV007839-selected culture B; format: cell-based, Plasmodium falciparum; details: Plasmodium falciparum, read-out: IC50 value, growth inhibition
# Procedure: as §1, §2
# 3D7 parasites = details: ref [1] Van Voorhis et al. 2016; read-out: IC50 for killing of 3D7 parasites; cited from earlier work
# [3] = tested on: isolated 3D7 P. falciparum trophozoites; experiment: L-[14C]lactate uptake by isolated 3D7 trophozoites; details: 50 μM; pH 6.1, 4°C; control (DMSO) 6.7 ± 0.4; mean ± SEM
# Dd2 parental parasites = experiment: L-[14C]lactate uptake by isolated Dd2 parental parasites; details: 100 μM; parental parasites; pH 6.1, 4°C
# [4] = tested on: PfFNT^Gly107Ser mutant parasites (MMV007839-selected culture B); experiment: L-[14C]lactate uptake by isolated PfFNT Gly107Ser mutant parasites; details: 100 μM, pH 6.1, 4°C
# [5] = tested on: erythrocytes infected with 3D7 trophozoites; format: cell-based, Plasmodium falciparum; details: sheet Ratio; for Ratio of metabolite abundance, Exp1_1hr: Exp1, 1hr; for Ratio of metabolite abundance, Exp1_3hr: Exp1, 3hr; for Ratio of metabolite abundance, Exp1_6hr: Exp1, 6hr; for Ratio of metabolite abundance, Exp2_1hr: Exp2, 1hr; for Ratio of metabolite abundance, Exp2_3hr: Exp2, 3hr; for Ratio of metabolite abundance, Exp2_6hr: Exp2, 6hr; for Ratio of metabolite abundance, Exp3_1hr: Exp3, 1hr; for Ratio of metabolite abundance, Exp3_3hr: Exp3, 3hr; for Ratio of metabolite abundance, Exp3_6hr: Exp3, 6hr
SMILES,IC50 (3D7 parasites),"Ratio of metabolite abundance, Exp1_1hr [5]","Ratio of metabolite abundance, Exp1_3hr [5]","Ratio of metabolite abundance, Exp1_6hr [5]","Ratio of metabolite abundance, Exp2_1hr [5]","Ratio of metabolite abundance, Exp2_3hr [5]","Ratio of metabolite abundance, Exp2_6hr [5]","Ratio of metabolite abundance, Exp3_1hr [5]","Ratio of metabolite abundance, Exp3_3hr [5]","Ratio of metabolite abundance, Exp3_6hr [5]",also measured
"C[C@@H]1CC[C@H]2[C@@H](C)C(=O)O[C@@H]3O[C@@]4(C)CC[C@@H]1[C@]32OO4 [Artemisinin, reference compound]",–,–,–,–,–,–,–,–,–,–,"IC50 (Dd2 parent parasites): 15.6 nM; IC50 ([1]; Plasmodium falciparum, MMV007839-selected culture A, mean ± SEM, read-out: IC50 value, growth inhibition): 22 ± 3.3 nM; Response of MMV007839-selected cultures compared with Dd2 parental parasites ([1]; both MMV007839-selected cultures (A and B), P > 0.1): not significantly different; also recorded: not affecting; IC50 [2]: 16.5 ± 0.4 nM"
CC(C)OCc1cc(CN2CCN(c3cccc(Cl)c3)CC2)c(O)c2ncccc12 [MMV000788],700 nM,–,–,–,–,–,–,–,–,–,–
Brc1ccc(Nc2nc3ccccc3nc2Nc2ccc(Br)cc2)cc1 [MMV007224],1060 nM,–,–,–,–,–,–,–,–,–,–
Cc1ccc(Nc2nc(-c3ccccn3)cs2)cc1 [MMV007907],350 nM,–,–,–,–,–,–,–,–,–,–
Cc1cccc(-n2ncc3c(O)nc(-n4nc(C)cc4NC(=O)c4cc5ccccc5o4)nc32)c1 [MMV403679],930 nM,–,–,–,–,–,–,–,–,–,–
FC(F)(F)c1cccc(Nc2nc3ccccc3nc2Nc2cccc(C(F)(F)F)c2)c1 [MMV665794],310 nM,–,–,–,–,–,–,–,–,–,–
O=C(Nc1ccc(Cl)c(Cl)c1)Nc1ccc(Cl)c(Cl)c1 [MMV665852],1160 nM,–,–,–,–,–,–,–,–,–,–
CCCCNc1nc(NC(C)(C)C)nc(NC(C)(C)C)n1 [MMV665864],710 nM,–,–,–,–,–,–,–,–,–,–
O=C(Nc1nc(-c2ccccn2)cs1)c1ccccc1Br [MMV665909],1360 nM,–,–,–,–,–,–,–,–,–,–
O=C(Nc1ccc(F)c(Cl)c1)Nc1ccc(Cl)c(Cl)c1 [MMV665953],2060 nM,–,–,–,–,–,–,–,–,–,–
O=C(Cc1ccccc1)NC(c1ccc(Cl)cc1)c1c(O)ccc2ccccc12 (stereo not shown) [MMV665972],1140 nM,–,–,–,–,–,–,–,–,–,–
CCCCCCc1cc(O)c2c3c(c(=O)oc2c1)CCC(C)C3 (stereo not shown) [MMV665987],530 nM,–,–,–,–,–,–,–,–,–,–
O=C(NC(c1ccccc1)c1ccc2cccnc2c1O)c1ccccc1 (stereo not shown) [MMV666080],1170 nM,–,–,–,–,–,–,–,–,–,–
"O=C(O)c1cc([N+](=O)[O-])ccc1NCCCc1ccccc1 [NPPB, reference compound]",–,–,–,–,–,–,–,–,–,–,L-[14C]lactate distribution ratio at 20 s [3]: 0.4 ± 0.1; Effect on rate of L-[14C]lactate influx (Dd2 parental parasites): reduced the rate; Effect on rate of L-[14C]lactate influx [4]: reduced the rate
CC(C)[C@H](N)C(=O)N[C@@H](CC(=O)O)C(=O)O [VD],–,1.809,1.252,2.887,2.091,1.368,1.996,11.5926,5.435,7.8446,–
Nc1ncnc2c1ncn2[C@H]1C[C@H](O)[C@@H](COP(=O)(O)OP(=O)(O)O)O1 [dADP],–,0.4339,0.1672,0.2747,1.0009,0.9609,1.167,1.173,0.5208,1.268,–
Nc1ncnc2c1ncn2[C@H]1C[C@H](O)[C@@H](COP(=O)(O)OP(=O)(O)OP(=O)(O)O)O1 [dATP],–,0.9995,0.8537,0.9613,1.009,1.102,1.077,1.104,0.9965,1.005,–
Nc1ccn([C@H]2C[C@H](O)[C@@H](COP(=O)(O)OP(=O)(O)O)O2)c(=O)n1 [dCDP],–,1.169,1.109,1.155,1.1851,1.387,1.852,1.354,1.295,1.494,–
Nc1nc2c(ncn2[C@H]2C[C@H](O)[C@@H](COP(=O)(O)O)O2)c(=O)[nH]1 [dGMP],–,1.008,1.65,0.6713,1.04,0.9344,0.8266,1.138,0.9165,0.8614,–
Cc1cn([C@H]2C[C@H](O)[C@@H](COP(=O)(O)O)O2)c(=O)[nH]c1=O [dTMP],–,1.094,1.051,1.314,1.082,1.005,1.669,0.8062,1.245,1.203,–
Cc1cn([C@H]2C[C@H](O)[C@@H](COP(=O)(O)OP(=O)(O)OP(=O)(O)O)O2)c(=O)[nH]c1=O [dTTP],–,1.097,0.6301,0.6957,1.256,1.272,1.427,1.1105,1.053,1.149,–
O=c1ccn([C@H]2C[C@H](O)[C@@H](COP(=O)(O)O)O2)c(=O)[nH]1 [dUMP],–,3.473,5.178,2.302,3.524,1.859,4.376,1.122,1.775,0.8871,–
O=P(O)(O)OC[C@H](O)CO [sn-Glycerol 3-phosphate],–,2.74,3.024,2.283,2.716,2.322,2.253,2.3639,3.645,2.752,–
O=P(O)(OC[C@H](O)CO)OC1[C@H](O)[C@H](O)C(O)[C@H](O)[C@H]1O (stereo partly shown) [sn-glycero-3-Phospho-1-inositol],–,0.9506,1.24,0.9287,1.0526,1.0759,1.139,0.7659,1.067,1.2236,–
